{
  "source": "paper PMC9545868",
  "about": "“Structure‐Based Demystification of Radical Catalysis by a Coenzyme B12 Dependent Enzyme—Crystallographic Study of Glutamate Mutase with Cofactor Homologues” (Angewandte Chemie (International Ed. in English), 2022)",
  "target": "T1, glutamate mutase (GM) (Clostridium cochlearium, UniProt P80077+P80078)",
  "T1 construct": "gene glmE; hetero-tetramer of two epsilon and two sigma subunits; construct details only in the supplement",
  "T1 sequence (P80077 1-483)": "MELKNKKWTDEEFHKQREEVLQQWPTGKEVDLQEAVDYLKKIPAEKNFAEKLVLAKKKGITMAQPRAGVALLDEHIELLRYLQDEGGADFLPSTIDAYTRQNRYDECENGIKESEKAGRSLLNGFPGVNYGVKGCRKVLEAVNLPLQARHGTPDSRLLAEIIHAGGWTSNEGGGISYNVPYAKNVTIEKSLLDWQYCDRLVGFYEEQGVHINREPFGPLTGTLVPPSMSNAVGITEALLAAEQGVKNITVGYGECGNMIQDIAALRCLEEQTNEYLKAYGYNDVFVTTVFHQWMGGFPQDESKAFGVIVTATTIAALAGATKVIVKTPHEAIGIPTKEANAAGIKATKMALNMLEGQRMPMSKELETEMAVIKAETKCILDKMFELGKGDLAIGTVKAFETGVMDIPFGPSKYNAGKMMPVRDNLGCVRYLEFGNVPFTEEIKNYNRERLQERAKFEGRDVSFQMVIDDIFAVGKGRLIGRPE",
  "T1 sequence (P80078 1-137)": "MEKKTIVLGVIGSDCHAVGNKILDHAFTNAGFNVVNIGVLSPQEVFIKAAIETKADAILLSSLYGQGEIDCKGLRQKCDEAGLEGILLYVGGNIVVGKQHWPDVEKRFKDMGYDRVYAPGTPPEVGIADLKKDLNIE",
  "assay": "X-ray crystal structures, […] and […] Å",
  "type": "binding",
  "conditions": "pseudo-substrate in the substrate site of the epsilon subunit (arginine claw R66, R100, R149); with AdoMeCbl or AdoEtCbl bound",
  "data": [
    {"smiles": "O=C(O)[C@@H](O)[C@H](O)C(=O)O", "note": "[(S,S)‐tartrate]", "values": [
      {"measurement": "X-ray crystal structures, 1.8 and 2.1 Å", "result": "strong polar binding interactions with the carboxylate groups of an (S,S)‐tartrate ion"}
    ]}
  ]
}
